Like-named read-outs stand apart in the source and are kept apart here.
How the values were obtained:
Aβ40 = experiment: In vitro BACE cell-based assay (Aβ40 sandwich ELISA, cells stably expressing APP); conditions: Homo sapiens, HEK293, average IC50, cell assay, HEK cells
Outline: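 APP-stably-expressing cells, grown 24 h in DMEM/10% FBS, received 10-point compound doses starting at 100 μM or 10 μM (0.1% DMSO final). Secreted Aβ40 in supernatants measured by sandwich ELISA with time-resolved europium fluorescence; IC50 from percent inhibition versus concentration.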

BACE = BACE (Homo sapiens, UniProt P56817); experiment: In vitro enzymatic BACE FRET assay; type: biochemical; conditions: average IC50, enzyme assay; read-out: BACE 1 FRET assay
Outline: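 BACE (0.2 nM) preincubated 1 h with serially diluted inhibitors in 0.05 M acetate pH 4.2, 10% DMSO, 100 uM genapol. FRET peptide substrate (50 nM) added, 1 h incubation, then stopped with Tris to neutral pH. Fluorescence from cleavage read at […].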

Abeta 40 = experiment: In vivo inhibition of beta-secretase: Abeta 40 reduction in CSF and brain of the rat; conditions: after 4 hrs; for inhibition in vivo at 10 mg/kg: 10 mpk
From the text: In Vivo Inhibition of Beta-Secretase
Several animal models, including mouse, rat, dog, and monkey, may be used to screen for inhibition of beta-secretase activity in vivo following administration of a test compound sample. Animals used in this invention can be wild type, transgenic, or gene knockout animals. For example, the Tg2576 mouse model, prepared and conducted as described in Hsiao et al., 1996, Science 274, 99-102, and other non-transgenic or gene knockout animals are useful to analyze in vivo inhibition of Amyloid beta peptide (Abeta) production in the presence of inhibitory test compounds. Generally, 2 to 18 month old Tg2576 mice, gene knockout mice or non-transgenic animals are administered test compounds formulated in vehicles, such as cyclodextran, phosphate buffers, hydroxypropyl methylcellulose or other suitable vehicles. One to twenty-four hours following the administration of compound, animals are sacrificed, and brains as well as cerebrospinal fluid (CSF) and plasma are removed for analysis of A-beta levels and drug or test compound concentrations (Dovey et al., 2001, Journal of Neurochemistry, 76,173-181) Beginning at time 0, animals are administered by oral gavage, or other means of delivery such as intravenous injection, an inhibitory test compound of up to 100 mg/kg in a standard, conventional formulation, such as 2% hydroxypropyl methylcellulose, 1% Tween80. A separate group of animals receive 2% hydroxypropyl methylcellulose, 1% Tween80 alone, containing no test compound, and serve as a vehicle-control group. At the end of the test period, animals are sacrificed and brain tissues, plasma or cerebrospinal fluid are collected. Brains are either homogenized in 10 volumes (w/v) of 0.2% diethylamine (DEA) in 50 mM NaCl (Best et al., 2005, Journal of Pharmacology and Experimental Therapeutics, 313, 902-908), or in 10 volumes of 0.5% TritonX-100 in Tris-buffered saline (pH at about 7.6). Homogenates are centrifuged at 355,000 g, 4° C. for 30 minutes. CSF or brain supernatants are then analyzed for the presence of A-beta peptide by specific sandwich ELISA assays based on ECL (Electrochemiluminescence) technology. For example, rat Abeta40 is measured using biotinylated-4G8 (Signet) as a capture antibody and Fab40 (an in-house antibody specific to the C-terminal of Abeta40) as a detection antibody. For example, 4 hours after administration of 30 mg/kg oral dose of the test compound in 2% hydroxypropyl methylcellulose, 1% Tween80 (pH2.2) to 200 g male Sprague Dawley rats, amyloid beta peptide levels are measured for reduction by X % and Y % in cerebrospinal fluid and brain, respectively, when compared to the levels measured in the vehicle-treated rats. • Actual vehicles used: Oral: 2% HPMC, 1% Tween80, pH 2.2 • IV: 5% EtOH, 45% Propylene glycol in 5% Dextrose
The compounds of the invention may be shown to reduce the formation and/or deposition of amyloid beta peptide in the cerebrospinal fluid (CSF) as well as in the brain of a mouse or rat at either 3 mpk, 10 mpk or 30 mpk (mpk=mg compound per kg weight of the animal) dosing concentrations after 4 hrs.

[1] = Abeta 40, rat CSF, read-out: % reduction of rat CSF levels at 10 pmk
[2] = Abeta 40, rat brain, read-out: % reduction of rat brain levels at 10 mpk

Chain of BACE (P56817 46-501, species assumed): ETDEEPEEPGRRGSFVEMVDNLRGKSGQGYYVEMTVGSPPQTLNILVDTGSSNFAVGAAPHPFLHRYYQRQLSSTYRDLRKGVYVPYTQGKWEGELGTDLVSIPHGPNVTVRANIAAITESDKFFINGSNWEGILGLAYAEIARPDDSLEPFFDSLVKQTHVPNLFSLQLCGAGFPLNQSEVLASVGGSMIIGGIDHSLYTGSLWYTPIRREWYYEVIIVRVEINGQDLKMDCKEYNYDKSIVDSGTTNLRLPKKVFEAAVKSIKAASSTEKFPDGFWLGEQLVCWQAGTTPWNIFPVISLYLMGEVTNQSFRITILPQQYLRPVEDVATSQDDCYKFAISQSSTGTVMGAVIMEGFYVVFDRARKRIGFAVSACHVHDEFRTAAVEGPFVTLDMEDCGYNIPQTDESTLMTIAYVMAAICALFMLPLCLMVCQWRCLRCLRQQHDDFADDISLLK

SMILES	IC50 (Aβ40) [nM]	IC50 (BACE) [nM]	inhibition in vivo at 10 mg/kg (Abeta 40; [1]) [%]	inhibition in vivo at 10 mg/kg (Abeta 40; [2]) [%]	% reduction of rat CSF levels (Abeta 40; Abeta 40, rat CSF) [% at 3 mpk]	% reduction of rat brain levels (Abeta 40; Abeta 40, rat brain) [% at 3 mpk]
CC(C)(C)C#Cc1cnc2c(c1)[C@]1(COCC(N)=N1)c1cc(-c3cccnc3F)ccc1O2 [Example 89, (S)-3-(3,3-dimethylbut-1-yn-1-yl)-7-(2-fluoropyridin-3-yl)-2′,6′-dihydrospiro[chromeno[2,3-b]pyridine-5,3′-[1,4]oxazin]-5′-amine]	0.4	0.7	50	41	–	–
Cc1ccc(-c2cnc3c(c2)[C@]2(COCC(N)=N2)c2cc(-c4cccnc4F)ccc2O3)cc1 [Example 90, (S)-7-(2-fluoropyridin-3-yl)-3-(p-tolyl)-2′,6′-dihydrospiro[chromeno[2,3-b]pyridine-5,3′-[1,4]oxazin]-5′-amine]	1.2	0.6	–	–	7	0
NC1=N[C@@]2(COC1)c1cc(-c3cccnc3F)ccc1Oc1ncc(-c3ccc(F)cc3)cc12 [Example 91, (S)-3-(4-fluorophenyl)-7-(2-fluoropyridin-3-yl)-2′,6′-dihydrospiro[chromeno[2,3-b]pyridine-5,3′-[1,4]oxazin]-5′-amine]	0.7	0.5	29	3	–	–
NC1=N[C@@]2(CCO1)c1cc(-c3cccnc3F)ccc1Oc1c2cc(-c2ccnc(F)c2)nc1F [Example 107, (S)-1-fluoro-7-(2-fluoropyridin-3-yl)-3-(2-fluoropyridin-4-yl)-5′,6′-dihydrospiro[chromeno[2,3-c]pyridine-5,4′-[1,3]oxazin]-2′-amine]	1.8	0.5	82	72	–	–
NC1=N[C@@]2(CCO1)c1cc(-c3cccnc3F)ccc1Oc1c2cc(C2=CCCOC2)nc1F [Example 110, (S)-3-(5,6-dihydro-2H-pyran-3-yl)-1-fluoro-7-(2-fluoropyridin-3-yl)-5′,6′-dihydrospiro[chromeno[2,3-c]pyridine-5,4′-[1,3]oxazin]-2′-amine]	0.5	0.5	86	79	–	–
NC1=N[C@@]2(CCO1)c1cc(-c3cccnc3F)ccc1Oc1cnc(C3=CCOCC3)cc12 [Example 111, (5S)-3-(3,6-dihydro-2H-pyran-4-yl)-7-(2-fluoro-3-pyridinyl)-5′,6′-dihydrospiro[chromeno[2,3-c]pyridine-5,4′-[1,3]oxazin]-2′-amine]	2.1	1.8	81	67	–	–
NC1=N[C@@]2(COC1)c1cc(-c3cncc(F)c3)ccc1Oc1cnc(-c3ccc(F)c(F)c3)cc12 [Example 114, (S)-3-(3,4-difluorophenyl)-7-(5-fluoropyridin-3-yl)-2′,6′-dihydrospiro[chromeno[2,3-c]pyridine-5,3′-[1,4]oxazin]-5′-amine]	2.3	0.4	54	34	–	–
NC1=N[C@@]2(COC1)c1cc(-c3cccnc3)ccc1Oc1cnc(-c3ccc(F)c(F)c3)cc12 [Example 115, (S)-3-(3,4-difluorophenyl)-7-(pyridin-3-yl)-2′,6′-dihydrospiro[chromeno[2,3-c]pyridine-5,3′-[1,4]oxazin]-5′-amine]	1.6	0.4	38	21	–	–
CC(C)(C)COc1cc2c(cn1)Oc1ccc(-c3cccnc3)cc1[C@@]21COCC(N)=N1 [Example 119, (S)-3-(neopentyloxy)-7-(pyridin-3-yl)-2′,6′-dihydrospiro[chromeno[2,3-c]pyridine-5,3′-[1,4]oxazin]-5′-amine]	0.4	0.6	–	–	5	6
CC(C)(C)COc1cc2c(cn1)Oc1ccc(-c3cncc(F)c3)cc1[C@@]21COCC(N)=N1 [Example 120, (S)-7-(5-fluoropyridin-3-yl)-3-(neopentyloxy)-2′,6′-dihydrospiro[chromeno[2,3-c]pyridine-5,3′-[1,4]oxazin]-5′-amine]	0.7	0.6	–	–	30	24
NC1=N[C@@]2(COC1)c1cc(-c3cncc(F)c3)ccc1Oc1cnc(N3CCC(F)(F)C3)cc12 [Example 122, (S)-3-(3,3-difluoropyrrolidin-1-yl)-7-(5-fluoropyridin-3-yl)-2′,6′-dihydrospiro[chromeno[2,3-c]pyridine-5,3′-[1,4]oxazin]-5′-amine]	0.3	0.6	–	–	11	14
CC(C)(C#N)COc1cc2c(cn1)Oc1ccc(-c3cccc(F)c3)cc1[C@@]21COCC(N)=N1 [Example 126, (S)-3-(5′-amino-7-(3-fluorophenyl)-2′,6′-dihydrospiro[chromeno[2,3-c]pyridine-5,3′-[1,4]oxazine]-3-yloxy)-2,2-dimethylpropanenitrile]	1.5	0.4	25	8	–	–
NC1=N[C@@]2(COC1)c1cc(-c3cccnc3F)ccc1Oc1c2cc(N2CCC(F)(F)CC2)nc1F [Example 129, (S)-3-(4,4-difluoropiperidin-1-yl)-1-fluoro-7-(2-fluoropyridin-3-yl)-2′,6′-dihydrospiro[chromeno[2,3-c]pyridine-5,3′-[1,4]oxazin]-5′-amine 2,2,2-trifluoroacetate]	4.9	0.9	22	17	–	–
NC1=N[C@@]2(COC1)c1cc(-c3cccnc3F)ccc1Oc1c(F)cc(C3=CCCOC3)cc12 [Example 132, (S)-2′-(5,6-dihydro-2H-pyran-3-yl)-4′-fluoro-7′-(2-fluoropyridin-3-yl)-2,6-dihydrospiro[[1,4]oxazine-3,9′-xanthen]-5-amine]	1.3	0.3	38	25	–	–
NC1=N[C@@]2(CCO1)c1cc(-c3cncc(F)c3)ccc1Oc1cnc(-c3ccnc(F)c3)cc12 [Example 145, (S)-7-(5-fluoropyridin-3-yl)-3-(2-fluoropyridin-4-yl)-5′,6′-dihydrospiro[chromeno[2,3-c]pyridine-5,4′-[1,3]oxazin]-2′-amine]	4	5	78	59	–	–
NC1=N[C@@]2(CCO1)c1cc(-c3cncc(F)c3)ccc1Oc1cnc(C3=CCCOC3)cc12 [Example 146, (S)-3-(5,6-dihydro-2H-pyran-3-yl)-7-(5-fluoropyridin-3-yl)-5′,6′-dihydrospiro[chromeno[2,3-c]pyridine-5,4′-[1,3]oxazin]-2′-amine]	1.5	2.2	75	62	–	–
NC1=N[C@@]2(CCO1)c1cc(-c3cccnc3F)ccc1Oc1cnc(-c3ccnc(F)c3)cc12 [Example 149, (S)-7-(2-fluoropyridin-3-yl)-3-(2-fluoropyridin-4-yl)-5′,6′-dihydrospiro[chromeno[2,3-c]pyridine-5,4′-[1,3]oxazin]-2′-amine]	3.8	4.8	80	62	–	–

Source: US9012446B2, “Amino-oxazines and amino-dihydrothiazine compounds as beta-secretase modulators and methods of use” (Amgen Inc., priority 2010, dated 2015)
